melting point [°C]	Structure (SMILES)
139 to 142	CN(C)CCn1ccc2ccc(NS(=O)(=O)c3cccc4ccccc34)cc21 [Example 3, N-[1-(2-Dimethylaminoethyl)-1H-indole-6-yl]-naphthalene-1-sulfonamide]
150 to 159	CN(C)CCn1ccc2ccc(NS(=O)(=O)c3cc(Cl)cc(Cl)c3)cc21 [Example 8, N-[1-(2-dimethylaminoethyl)-1H-indole-6-yl]-3,5-dichlorobenzenesulfonamide]
140 to 143	CN(C)CCn1ccc2ccc(NS(=O)(=O)c3ccc4ccccc4c3)cc21 [Example 2, N-[1-(2-Dimethylaminoethyl)-1H-indole-6-yl]-naphthalene-2-sulfonamide]

From patent US7462640B2, “Indol-6yl sulfonamide derivatives, their preparation and their use as 5-HT-6 as modulators” (Laboratorios del Dr. Esteve S.A., priority 2003, dated 2008)
